# Reference: patent US20140303367A1, “Methods for Synthesizing Molybdopterin Precursor Z Derivatives” (Alexion Pharma International Sàrl, priority 2011, published 2014)
# Assays:
# [1] = biological target: MPT synthase from E. coli (Escherichia coli, UniProt P30748+P30749); experiment: In vitro synthesis of MPT from cPMP; type: biochemical; conditions: FIGS. 2 and 3; for conversion of cPMP into MPT: all samples
# From the text: In vitro synthesis of MPT was compared using samples of synthetic precursor Z (cPMP) and cPMP purified from E. coli. MPT synthesis also involved the use of in vitro assembled MPT synthase from E. coli. See U.S. Pat. No. 7,504,095 and “Biosynthesis and molecular biology of the molybdenum cofactor (Moco)” in Metal Ions in Biological Systems, Mendel, Ralf R. and Schwarz, Günter, Informa Plc, 2002, Vol. 39, pages 317-68.
# [2] = test system: human apo-sulfite oxidase; experiment: In vitro synthesis of Moco from cPMP (conversion into MPT, molybdate insertion, reconstitution of apo-sulfite oxidase); type: biochemical; conditions: FIG. 1
# From the text: In vitro synthesis of Moco was compared using samples of synthetic precursor Z (cPMP) and cPMP purified from E. coli. Moco synthesis also involved the use of the purified components E. coli MPT synthase, gephyrin, molybdate, ATP, and apo-sulfite oxidase. See U.S. Pat. No. 7,504,095 and “Biosynthesis and molecular biology of the molybdenum cofactor (Moco)” in Metal Ions in Biological Systems, Mendel, Ralf R. and Schwarz, Günter, Informa Plc, 2002, Vol. 39, pages 317-68. The assay is based on the conversion of cPMP into MPT, the subsequent molybdate insertion using recombinant gephyrin and ATP, and finally the reconstitution of human apo-sulfite oxidase.
# MPT synthase from E. coli, sequence (P30749 whole entry): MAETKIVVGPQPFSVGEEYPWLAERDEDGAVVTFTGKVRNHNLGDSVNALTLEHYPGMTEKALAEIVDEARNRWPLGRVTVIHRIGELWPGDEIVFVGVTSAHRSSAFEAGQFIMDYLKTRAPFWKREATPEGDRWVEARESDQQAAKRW
# MPT synthase from E. coli, sequence (P30748 whole entry): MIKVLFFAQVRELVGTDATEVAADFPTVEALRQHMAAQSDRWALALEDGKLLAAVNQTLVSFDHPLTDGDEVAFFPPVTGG
SMILES,conversion of cPMP into MPT ([1]; in vitro),"Moco synthesis ([2]; E. coli MPT synthase, gephyrin, molybdate, ATP, apo-sulfite oxidase)",Moco conversion in comparison to E. coli purified cPMP [2],"MPT synthesis ([1]; in vitro assembled MPT synthase from E. coli, three repetitions)","MPT conversion compared to E. coli purified cPMP ([1]; in vitro, three repetitions)"
"Nc1nc(=O)c2c([nH]1)N[C@@H]1O[C@@H]3COP(=O)(O)O[C@@H]3C(O)(O)[C@@H]1N2 [E. coli purified cPMP, reference compound]",linear conversion,–,–,–,–
"Nc1nc2c(c(=O)[nH]1)N[C@@H]1[C@H](N2)O[C@@H]2COP(=O)(O)O[C@@H]2C1(O)O [synthetic cPMP, (4aR,5aR,11aR,12aS)-1,3,2-Dioxaphosphorino[4′,5′:5,6]pyrano[3,2-g]pteridin-10(4H)-one,8-amino-4a,5a,6,9,11,11a,12,12a-octahydro-2,12,12-trihydroxy-2-oxide]",linear conversion,confirmed,no differences,confirmed,no apparent differences
